Laboratory results taken from US11554171B2, “Compounds and methods for the targeted degradation of bromodomain-containing proteins” (Arvinas Operations, Inc., priority 2015, dated 2023).

System: c-myc in 22RV-1 cells
Test: Human c-myc ELISA assay
Type: cell-based
Conditions: Homo sapiens; for Emax: 22Rv1, 18 h, read-out: Degradation of BRD4: Maximum inhibition (%) c-Myc ELISA in 22RV1 cells; for DC50: 22Rv1, read-out: Degradation of BRD4: DC50 (uM) c-Myc ELISA in 22RV1 cells
Description: 22RV-1 cells are seeded at 30,000 cells/well at a volume of 75 μL/well in RPMI+10% FBS media in 96-well plates and grown overnight at 37 C. Cells are dosed with compounds at 4× concentration diluted in 0.4% DMSO; compounds are serially diluted 1:3 for 8-point dose curve. 25 ul of compounds is added to cells for a final concentration starting at 300 nM-0.3 nM or 1 uM-1 nM in 0.1% DMSO and incubated for 18 hrs. Media is aspirated, cells washed 1× with PBS and aspirated. Cells are lysed in 50 ul RIPA buffer (50 mM Tris pH8, 150 mM NaCl, 1% Tx-100, 0.1% SDS, 0.5% sodium deoxycholate) supplemented with protease and phosphatase inhibitors. Plates are incubated on ice for 15 minutes then centrifuged at 4 C for 10 min at 4000 rpm. Add 50 ul of cleared lysate from 96-well assay plate into 96-well c-myc ELISA plate (Novex, Life Technologies Catalog #KH02041). Reconstitute c-myc standard with standard diluent buffer; standard curve range is 333 pg/ml-0 pg/ml, diluted 1:2 for 8-point dose curve. The rest of the assay was performed following the protocol from the c-myc ELISA kit. Data is analyzed and plotted using GraphPad Prism software. Compounds described in this application were assayed and c-myc suppression potency is listed in the following Table (A: DC50<10 nM; B: DC50 10-100 nM; C: DC50: 100-1000 nM; D: DC50>1000 nM)

SMILES | DC50 [µM] | Emax [%]
Cc1ncsc1-c1ccc([C@H](C)NC(=O)[C@@H]2C[C@@H](O)CN2C(=O)[C@@H](NC(=O)COCCCOCCOc2cccc(NC(=O)C[C@@H]3N=C(c4ccc(Cl)cc4)c4c(sc(C)c4C)-n4c(C)nnc43)c2)C(C)(C)C)cc1 [Example 129] | < 0.01 | 96
Cc1ncsc1-c1ccc(CNC(=O)[C@@H]2C[C@@H](O)CN2C(=O)[C@@H](NC(=O)Cc2ccc3cc(CCNC(=O)C[C@@H]4N=C(c5ccc(Cl)cc5)c5c(sc(C)c5C)-n5c(C)nnc54)oc3c2)C(C)(C)C)cc1 [Example 97] | < 0.01 | 100
Cc1ncsc1-c1ccc([C@H](C)NC(=O)[C@@H]2C[C@@H](O)CN2C(=O)[C@@H](NC(=O)c2cc3cc(O[C@H]4C[C@H](NC(=O)C[C@@H]5N=C(c6ccc(Cl)cc6)c6c(sc(C)c6C)-n6c(C)nnc65)C4)ccc3o2)C(C)(C)C)cc1 [Example 207, (2S,4R)-1-[(2S)-3,3-dimethyl-2-({5-[(1,3trans)-3-{2-[(9S)-7-(4-chlorophenyl)-4,5,13-trimethyl-3-thia-1,8,11,12-tetraazatricyclo[8.3.0.0^2,^6]trideca-2(6),4,7,10,12-pentaen-9-yl]acetamido}cyclobutoxy]-1-benzofuran-2-yl}formamido)butanoyl]-4-hydroxy-N-[(1S)-1-[4-(4-methyl-1,3-thiazol-5-yl)phenyl]ethyl]pyrrolidine-2-carboxamide] | < 0.01 | 89.5
Cc1ncsc1-c1ccc([C@H](C)NC(=O)[C@@H]2C[C@@H](O)CN2C(=O)[C@@H](NC(=O)COCCCOCCCCOc2ccc3c(c2)c2c(C(N)=O)cc(-c4c(C)noc4C)cc2n3Cc2ccccc2)C(C)(C)C)cc1 [Example 166] | < 0.01 | 97
Cc1ncsc1-c1ccc([C@H](C)NC(=O)[C@@H]2C[C@@H](O)CN2C(=O)[C@@H](NC(=O)Cc2ccc(O[C@H]3C[C@@H](NC(=O)C[C@@H]4N=C(c5ccc(Cl)cc5)c5c(sc(C)c5C)-n5c(C)nnc54)C3)cc2)C(C)(C)C)cc1 [Example 185, (2S,4R)-1-[(2S)-3,3-dimethyl-2-(2-{4-[(1s,35)-3-{2-[(9S)-7-(4-chlorophenyl)-4,5,13-trimethyl-3-thia-1,8,11,12-tetraatetraazatricyclo[8.3.0.0^2,^6]trideca-2(6),4,7,10,12-pentaen-9-yl]acetamido}cyclobutoxy]phenyl}acetamido)butanoyl]-4-hydroxy-N-[(1S)-1-[4-(4-methyl-1,3-thiazol-5-yl)phenyl]ethyl]pyrrolidine-2-carboxamide] | < 0.01 | 99.5
Cc1ncsc1-c1ccc(CNC(=O)[C@@H]2C[C@@H](O)CN2C(=O)[C@@H](NC(=O)COCCCOCCCCOCCCOc2ccc(NC(=O)C[C@@H]3N=C(c4ccc(Cl)cc4)c4c(sc(C)c4C)-n4c(C)nnc43)cc2)C(C)(C)C)cc1 [Example 13] | 0.01 to 0.1 | 100
Cc1ncsc1-c1ccc(CNC(=O)[C@@H]2C[C@@H](O)CN2C(=O)[C@@H](NC(=O)COCCCSCCNC(=O)C[C@@H]2N=C(c3ccc(Cl)cc3)c3c(sc(C)c3C)-n3c(C)nnc32)C(C)(C)C)cc1 [Example 100] | 0.01 to 0.1 | 99
Cc1ncsc1-c1ccc([C@H](C)NC(=O)[C@@H]2C[C@@H](O)CN2C(=O)[C@@H](NC(=O)COCCCOCCN(C)C(=O)C[C@@H]2N=C(c3ccc(Cl)cc3)c3c(sc(C)c3C)-n3c(C)nnc32)C(C)(C)C)cc1 [Example 148] | < 0.01 | 100
Cc1ncsc1-c1ccc(CNC(=O)[C@@H]2C[C@@H](O)CN2C(=O)[C@@H](NC(=O)CCN2CCN(CCCNC(=O)C[C@@H]3N=C(c4ccc(Cl)cc4)c4c(sc(C)c4C)-n4c(C)nnc43)CC2)C(C)(C)C)cc1 [Example 102] | > 1 | 34.5
Cc1ncsc1-c1ccc(CNC(=O)[C@@H]2C[C@@H](O)CN2C(=O)[C@@H](NC(=O)COCCCOCC#Cc2ccc([C@@H](C)NC(=O)C[C@@H]3N=C(c4ccc(Cl)cc4)c4c(sc(C)c4C)-n4c(C)nnc43)cc2)C(C)(C)C)cc1 [Example 39, (2S,4R)-1-[(2S)-2-(2-{3-[(3-{4-[(1R)-1-{2-[(9S)-7-(4-chlorophenyl)-4,5,13-trimethyl-3-thia-1,8,11,12-tetraazatricyclo[8.3.0.0^2,^6]trideca-2(6),4,7,10,12-pentaen-9-yl]acetamido}-ethyl]phenyl}prop-2-yn-1-yl)oxy]propoxy}acetamido)-3,3-dimethylbutanoyl]-4-hydroxy-N-{[4-(4-methyl-1,3-thiazol-5-yl)phenyl]methyl}pyrrolidine-2-carboxamide] | 0.01 to 0.1 | 99
Cc1ncsc1-c1ccc(CNC(=O)[C@@H]2C[C@@H](O)CN2C(=O)[C@@H](NC(=O)COCCCOCCOc2ccc3c(c2)c2c(C(N)=O)cc(-c4c(C)noc4C)cc2n3Cc2ccccc2)C(C)(C)C)cc1 [Example 116, 9-benzyl-2-(dimethyl-1,2-oxazol-4-yl)-6-{2-[3-({[(2S)-1-[(2S,4R)-4-hydroxy-2-({[4-(4-methyl-1,3-thiazol-5-yl)phenyl]methyl}carbamoyl)pyrrolidin-1-yl]-3,3-dimethyl-1-oxobutan-2-yl]carbamoyl}methoxy)propoxy]ethoxy}-9H-carbazole-4-carboxamide] | 0.01 to 0.1 | 100

The next lines start with results.

DC50 [µM] | SMILES | Emax [%]
< 0.01 | Cc1ncsc1-c1ccc([C@H](C)NC(=O)[C@@H]2C[C@@H](OC(=O)[C@@H](N)C(C)C)CN2C(=O)[C@@H](NC(=O)c2cc3cc(O[C@H]4C[C@@H](NC(=O)C[C@@H]5N=C(c6ccc(Cl)cc6)c6c(sc(C)c6C)-n6c(C)nnc65)C4)ccc3o2)C(C)(C)C)cc1 [Example 338] | 100
0.01 to 0.1 | Cc1ncsc1-c1ccc([C@H](C)NC(=O)[C@@H]2C[C@@H](O)CN2C(=O)[C@@H](n2cc(-c3ccnc(O[C@H]4C[C@H](NC(=O)C[C@@H]5N=C(c6ccc(Cl)cc6)c6c(sc(C)c6C)-n6c(C)nnc65)C4)c3)cn2)C(C)(C)C)cc1 [Example 234] | 80.6
> 1 | Cc1sc2c(c1C)C(c1ccc(Cl)cc1)=N[C@@H](CC(=O)N[C@H]1C[C@H](Oc3ccc(CC(=O)N[C@H](C(=O)N4C[C@H](O)C[C@H]4C(=O)N[C@@H](C)c4ccc(-c5nccn5C)cc4)C(C)(C)C)cc3)C1)c1nnc(C)n1-2 [Example 273] | < 5
> 1 | Cc1ncsc1-c1ccc([C@H](C)NC(=O)[C@@H]2C[C@@H](O)CN2C(=O)[C@@H](C(C)C)n2cc(-c3cccc(O[C@H]4C[C@@H](NC(=O)C[C@@H]5N=C(c6ccc(Cl)cc6)c6c(sc(C)c6C)-n6c(C)nnc65)C4)c3)cn2)cc1 [Example 241] | 49.8
< 0.01 | Cc1ncsc1-c1ccc(CNC(=O)[C@@H]2C[C@@H](O)CN2C(=O)[C@H](C(C)C)n2cc(-c3cccc(O[C@@H](C)CNC(=O)C[C@@H]4N=C(c5ccc(Cl)cc5)c5c(sc(C)c5C)-n5c(C)nnc54)c3)cn2)cc1 [Example 199] | 93
0.01 to 0.1 | Cc1ncoc1-c1ccc([C@H](C)NC(=O)[C@@H]2C[C@@H](O)CN2C(=O)[C@H](C(C)C)n2cc(-c3ccnc(O[C@H]4C[C@@H](NC(=O)C[C@@H]5N=C(c6ccc(Cl)cc6)c6c(sc(C)c6C)-n6c(C)nnc65)C4)c3)cn2)cc1 [Example 277] | 94
> 1 | Cc1ncsc1-c1ccc([C@H](C)NC(=O)[C@@H]2C[C@@H](O)CN2C(=O)[C@@H](NC(=O)COC[C@@H](O)CN2CCN(C(=O)C[C@@H]3N=C(c4ccc(Cl)cc4)c4c(sc(C)c4C)-n4c(C)nnc43)CC2)C(C)(C)C)cc1 [Example 329] | < 5
> 1 | Cc1ncoc1-c1ccc([C@H](C)NC(=O)[C@@H]2C[C@@H](O)CN2C(=O)[C@@H](C(C)C)n2cc(-c3cccc(O[C@H]4C[C@@H](NC(=O)C[C@@H]5N=C(c6ccc(Cl)cc6)c6c(sc(C)c6C)-n6c(C)nnc65)C4)c3)cn2)cc1 [Example 285] | 44.4
0.01 to 0.1 | Cc1ncsc1-c1ccc([C@H](C)NC(=O)[C@@H]2C[C@@H](O)CN2C(=O)[C@@H](C(C)C)n2cc(-c3ccc(O[C@H]4C[C@H](NC(=O)C[C@@H]5N=C(c6ccc(Cl)cc6)c6c(sc(C)c6C)-n6c(C)nnc65)C4)nc3)cn2)cc1 [Example 268] | 98
0.01 to 0.1 | Cc1sc2c(c1C)C(c1ccc(Cl)cc1)=N[C@@H](CC(=O)N[C@H]1C[C@@H](Oc3ccc4oc(C(=O)N[C@H](C(=O)N5C[C@H](O)C[C@H]5C(=O)N[C@@H](C)c5ccc(-n6ccnc6C)cc5)C(C)(C)C)cc4c3)C1)c1nnc(C)n1-2 [Example 261] | 92.7
< 0.01 | Cc1ncsc1-c1ccc([C@H](C)NC(=O)[C@@H]2C[C@@H](O)CN2C(=O)[C@H](C(C)C)n2cc(-c3ccc(N4CCN(C(=O)C[C@@H]5N=C(c6ccc(Cl)cc6)c6c(sc(C)c6C)-n6c(C)nnc65)CC4)nc3)cn2)cc1 [Example 320] | 97.8
